These results are taken from patent US11760795B2, “Monoclonal antibodies to growth and differentiation factor 15 (GDF-15), and uses thereof for treating cancer cachexia and cancer” (JULIUS-MAXIMILIANS-UNIVERSITÄT WÜRZBURG, priority 2014, dated 2023).

Values joined by “and” are separate entries in the source; they are usually repeats but may differ in a detail not shown here. Equal entries are not always repeated.

A short description of test [1]: Study No. 140123: feed consumption of UACC-257 inoculated mice. Particulars: average over day 17-34 intervals, with standard deviation. The class given is in vivo, Balb/c^nu/nu mice. The protocol: Treatment of cancer-induced weight loss with anti-GDF-15 antibodies. In the underlying animal study No. 140123, 10 Balb/c^nu/nu mice per treatment group were subcutaneously inoculated with 10×10^6 UACC-257 cells per animal in a 1:1 volume ratio with matrigel (100 μl cells+100 μl matrigel). The animals were treated on the same day with the respective antibodies, as indicated below:
In addition to evaluating the mean body weight of the mice, the feed consumption of the mice was evaluated by pairwise comparisons of the study groups (Table 1).

In test [2] the target is T1, human GDF-15 (Homo sapiens, UniProt Q99988).
T1 sequence (Q99988 with tags, fused parts or gaps limits assumed): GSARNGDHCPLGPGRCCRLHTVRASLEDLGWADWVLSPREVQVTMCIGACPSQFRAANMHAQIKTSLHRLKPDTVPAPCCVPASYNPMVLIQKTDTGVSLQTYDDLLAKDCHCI
The test is described as follows: Kd determination by Surface Acoustic Wave (SAW) gold chip biosensors. The class given is binding. Particulars: murine B1-23 stabilized with 0.2% BSA, H1L5 as CHO supernatant. An excerpt:
Determination of Kd values of anti-GDF-15 antibodies. The Kd values of different anti-GDF-15 antibodies were compared using Surface Acoustic Wave (SAW) gold chip biosensors technology (SAW Instruments GmbH, Schwertberger Str. 16, D-53177 Bonn, Germany):
The murine antibody (B1-23) as well as the chimeric B1-23 antibody were present in purified form. The H1L5 humanized B1-23 antibody was a serum-free CHO cell culture supernatant.

The conditions of test [3]: comparison value, antigen not given; read-out: equilibrium dissociation constant of therapeutic antibody; cited from earlier work.

On to `CN(C)/N=N/c1[nH]cnc1C(N)=O` [dacarbazine, Dacarbazine, reference compound], for which, in test [1], the “Feed consumption per mouse and day” value was found to be 2.8 ± 0.2 g.

On to “Rituximab: therapeutically used antibody; control antibody in SAW assay”, for which the Kd in test [2] was 1120 nM; in test [3], ~8 nM and 8 nM.
